Assay in all cases: biochemical
Set-up in all cases: in vitro kinase selectivity panel, protein and lipid kinases, single concentration, ATP at Km
Conditions in all cases: ATP at Km

One assay has as its target DAPK1(h) (Homo sapiens, UniProt P53355). The protocol:
(§1) CRT0066101 was described previously ([48]) and was purchased for this study from Tocris, with a purity of 99.9%. CRT0066101 (XX-209) and compound XX-050 were synthesized as previously described ([68]). CRT0066051 (Y-095) was also synthesized as previously described ([69]). […] CRT0066101 can also be obtained in larger quantities from Ximbio. Inhibitors were tested in in vitro PKD kinase assays and cellular assays on PANC1 cells as previously described ([48]). The selectivity of the three PKD inhibitors was determined against a panel of protein and lipid kinases by Eurofins and the MRC PPU International Centre for Kinase Profiling (http://www.kinase-screen.mrc.ac.uk), respectively. Each inhibitor was tested at a single concentration of 1 μM and at an ATP concentration equivalent to the Km for each kinase. Having shown that HRV infection appears to activate PKD, we went on to explore the influence of chemical inhibitors of PKD on HRV replication. The compound CRT0066101 is a specific and potent PKD inhibitor that has been used in studies exploring its potential as an anticancer target ([48], [51]). This inhibitor has a 50% inhibitory concentration (IC50) of 1 nM against purified PKD in biochemical assays and a 50% effective concentration (EC50) of 1 μM in a cell-based assay (Table 1). We pretreated HeLa cells with increasing concentrations of the drug for 1 h followed by infection with HRV16. Viral replication was subsequently measured at 6 hpi by quantitative real-time PCR (qRT-PCR) (Fig. 2A) and by Western blotting using an antibody against the viral nonstructural protein 2C (Fig. 2B). […] Furthermore, we tested two novel and structurally different PKD inhibitors (CRT0066051 and XX-050) (Table 1) and confirmed that they too inhibited HRV 2C expression although with different potencies (Fig. 2D). Kinase selectivity profiling of all three PKD inhibitors was performed against a panel of protein and lipid kinases at a drug concentration of 1 μM and at an ATP concentration equivalent to the Km of each kinase (see Table S1 in the supplemental material). […] Since PKD is known to be involved in regulating the architecture of the Golgi apparatus, we confirmed the pharmacodynamic effect of these inhibitors by demon

The target of the next assay is DGKG (Homo sapiens, UniProt P49619). As to the method:
as §1

The next assay has as its target HIPK1(h) (Homo sapiens, UniProt Q86Z02). The protocol:
as §1

Another assay has as its target CHKB (Homo sapiens, UniProt Q9Y259). As to the method:
as §1

Another assay deals with PIK3CB (Homo sapiens, UniProt P42338). As to the method: as §1
The target in a further assay is T1, AMPKα1(h) (Homo sapiens, UniProt Q13131).
T1 construct: gene PRKAA1
As to the method: as §1

A further assay concerns the target T2, PIK3CG / p85 (h) (Homo sapiens, UniProt P48736).
T2 construct: p110gamma/p85 as printed
The protocol: as §1

Another assay concerns the target T3, IGF-1R(h) (Homo sapiens, UniProt P08069).
T3 construct: gene IGF1R
As to the method:
as §1

Another assay addresses Ret(h) (Homo sapiens, UniProt P07949). As to the method: as §1
A further assay concerns the target T4, PDK1(h) (Homo sapiens, UniProt O15530).
T4 construct: gene PDPK1
The protocol:
as §1

Another assay deals with T5, PKD2(h) (Homo sapiens, UniProt Q9BZL6).
T5 construct: gene PRKD2
The protocol: as §1

Another assay concerns the target FGFR4(h) (Homo sapiens, UniProt P22455). As to the method:
as §1

In another assay the target is T6, PDGFRα(D842V)(h) (Homo sapiens, UniProt P16234, D842V).
T6 construct: gene PDGFRA
As to the method: as §1

Another assay concerns the target T7, Abl(T315I)(h) (Homo sapiens, UniProt P00519, T315I).
T7 construct: gene ABL1
As to the method:
as §1

The target in the next assay is CHKA (Homo sapiens, UniProt P35790). As to the method:
as §1

The next assay has as its target EphA2(h) (Homo sapiens, UniProt P29317). As to the method:
as §1

Another assay has as its target T8, PKCβII(h) (Homo sapiens, UniProt P05771).
T8 construct: gene PRKCB; isoform beta II
As to the method:
as §1

What is called inhibition is the change of the read-out against control, counted positive when it falls.

Chain of EphA2(h) (P29317 whole entry): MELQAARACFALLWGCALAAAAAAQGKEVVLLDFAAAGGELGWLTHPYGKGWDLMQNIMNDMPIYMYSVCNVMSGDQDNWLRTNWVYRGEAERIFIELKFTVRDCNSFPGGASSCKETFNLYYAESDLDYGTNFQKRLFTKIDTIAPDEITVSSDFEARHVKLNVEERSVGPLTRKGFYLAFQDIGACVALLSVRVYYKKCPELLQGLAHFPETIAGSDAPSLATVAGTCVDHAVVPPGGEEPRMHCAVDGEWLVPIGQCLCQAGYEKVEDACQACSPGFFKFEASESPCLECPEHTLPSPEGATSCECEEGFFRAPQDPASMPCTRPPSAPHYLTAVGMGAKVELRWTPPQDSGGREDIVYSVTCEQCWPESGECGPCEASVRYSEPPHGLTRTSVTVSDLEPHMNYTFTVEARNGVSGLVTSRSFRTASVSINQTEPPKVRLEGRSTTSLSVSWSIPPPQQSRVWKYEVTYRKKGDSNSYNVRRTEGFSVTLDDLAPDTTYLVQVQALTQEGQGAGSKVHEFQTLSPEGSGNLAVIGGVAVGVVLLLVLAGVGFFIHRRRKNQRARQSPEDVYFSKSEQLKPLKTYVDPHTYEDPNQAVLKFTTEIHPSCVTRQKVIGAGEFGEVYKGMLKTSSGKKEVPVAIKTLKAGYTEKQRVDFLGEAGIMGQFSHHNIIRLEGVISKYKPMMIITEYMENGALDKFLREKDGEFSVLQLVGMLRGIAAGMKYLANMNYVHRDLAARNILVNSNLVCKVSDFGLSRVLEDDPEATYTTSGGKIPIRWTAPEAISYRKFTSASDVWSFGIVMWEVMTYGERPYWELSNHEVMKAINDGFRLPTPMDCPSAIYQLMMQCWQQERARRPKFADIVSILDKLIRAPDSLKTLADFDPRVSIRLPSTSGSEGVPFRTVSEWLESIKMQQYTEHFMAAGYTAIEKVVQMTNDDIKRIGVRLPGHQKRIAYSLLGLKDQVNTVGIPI
T5 sequence (Q9BZL6 whole entry): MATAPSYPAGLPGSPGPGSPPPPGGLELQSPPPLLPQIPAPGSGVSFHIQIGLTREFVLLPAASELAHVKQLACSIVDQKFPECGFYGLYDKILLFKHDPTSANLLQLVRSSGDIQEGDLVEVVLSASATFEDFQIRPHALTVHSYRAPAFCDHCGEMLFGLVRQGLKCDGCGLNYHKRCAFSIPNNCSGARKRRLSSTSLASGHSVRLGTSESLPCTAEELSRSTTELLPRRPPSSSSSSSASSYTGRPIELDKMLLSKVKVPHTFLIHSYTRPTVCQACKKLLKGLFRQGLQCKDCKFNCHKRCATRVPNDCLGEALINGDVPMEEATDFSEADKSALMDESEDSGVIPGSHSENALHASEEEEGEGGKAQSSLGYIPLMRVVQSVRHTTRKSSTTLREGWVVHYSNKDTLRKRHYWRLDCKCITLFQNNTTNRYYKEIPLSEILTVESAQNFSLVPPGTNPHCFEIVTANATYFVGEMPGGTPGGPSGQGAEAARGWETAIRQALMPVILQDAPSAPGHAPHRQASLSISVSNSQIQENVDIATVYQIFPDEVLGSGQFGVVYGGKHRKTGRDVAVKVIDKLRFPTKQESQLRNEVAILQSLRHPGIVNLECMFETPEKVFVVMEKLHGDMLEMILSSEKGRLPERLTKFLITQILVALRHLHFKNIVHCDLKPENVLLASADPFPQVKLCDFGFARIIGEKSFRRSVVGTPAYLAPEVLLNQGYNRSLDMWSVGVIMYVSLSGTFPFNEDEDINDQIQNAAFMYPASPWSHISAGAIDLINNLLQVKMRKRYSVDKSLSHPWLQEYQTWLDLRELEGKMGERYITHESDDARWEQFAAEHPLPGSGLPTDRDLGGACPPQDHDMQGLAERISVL
T8 sequence (P05771 whole entry, canonical isoform): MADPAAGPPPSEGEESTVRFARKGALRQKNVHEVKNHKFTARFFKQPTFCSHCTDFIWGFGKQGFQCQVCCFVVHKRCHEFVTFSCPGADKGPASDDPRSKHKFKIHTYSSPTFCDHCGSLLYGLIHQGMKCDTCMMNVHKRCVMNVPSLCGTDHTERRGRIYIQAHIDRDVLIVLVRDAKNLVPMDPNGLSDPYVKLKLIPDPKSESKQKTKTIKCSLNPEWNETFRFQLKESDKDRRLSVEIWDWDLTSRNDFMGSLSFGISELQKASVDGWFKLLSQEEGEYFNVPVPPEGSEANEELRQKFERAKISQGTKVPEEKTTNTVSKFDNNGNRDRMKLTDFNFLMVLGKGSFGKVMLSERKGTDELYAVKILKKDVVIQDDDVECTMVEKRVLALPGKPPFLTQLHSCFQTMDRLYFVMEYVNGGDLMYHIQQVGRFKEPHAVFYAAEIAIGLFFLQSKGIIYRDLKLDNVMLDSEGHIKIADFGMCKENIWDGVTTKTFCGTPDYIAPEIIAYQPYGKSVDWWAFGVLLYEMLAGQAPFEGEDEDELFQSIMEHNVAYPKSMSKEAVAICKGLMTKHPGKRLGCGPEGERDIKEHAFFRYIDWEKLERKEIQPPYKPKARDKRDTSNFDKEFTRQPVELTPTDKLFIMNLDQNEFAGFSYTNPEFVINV
Chain of HIPK1(h) (Q86Z02 whole entry): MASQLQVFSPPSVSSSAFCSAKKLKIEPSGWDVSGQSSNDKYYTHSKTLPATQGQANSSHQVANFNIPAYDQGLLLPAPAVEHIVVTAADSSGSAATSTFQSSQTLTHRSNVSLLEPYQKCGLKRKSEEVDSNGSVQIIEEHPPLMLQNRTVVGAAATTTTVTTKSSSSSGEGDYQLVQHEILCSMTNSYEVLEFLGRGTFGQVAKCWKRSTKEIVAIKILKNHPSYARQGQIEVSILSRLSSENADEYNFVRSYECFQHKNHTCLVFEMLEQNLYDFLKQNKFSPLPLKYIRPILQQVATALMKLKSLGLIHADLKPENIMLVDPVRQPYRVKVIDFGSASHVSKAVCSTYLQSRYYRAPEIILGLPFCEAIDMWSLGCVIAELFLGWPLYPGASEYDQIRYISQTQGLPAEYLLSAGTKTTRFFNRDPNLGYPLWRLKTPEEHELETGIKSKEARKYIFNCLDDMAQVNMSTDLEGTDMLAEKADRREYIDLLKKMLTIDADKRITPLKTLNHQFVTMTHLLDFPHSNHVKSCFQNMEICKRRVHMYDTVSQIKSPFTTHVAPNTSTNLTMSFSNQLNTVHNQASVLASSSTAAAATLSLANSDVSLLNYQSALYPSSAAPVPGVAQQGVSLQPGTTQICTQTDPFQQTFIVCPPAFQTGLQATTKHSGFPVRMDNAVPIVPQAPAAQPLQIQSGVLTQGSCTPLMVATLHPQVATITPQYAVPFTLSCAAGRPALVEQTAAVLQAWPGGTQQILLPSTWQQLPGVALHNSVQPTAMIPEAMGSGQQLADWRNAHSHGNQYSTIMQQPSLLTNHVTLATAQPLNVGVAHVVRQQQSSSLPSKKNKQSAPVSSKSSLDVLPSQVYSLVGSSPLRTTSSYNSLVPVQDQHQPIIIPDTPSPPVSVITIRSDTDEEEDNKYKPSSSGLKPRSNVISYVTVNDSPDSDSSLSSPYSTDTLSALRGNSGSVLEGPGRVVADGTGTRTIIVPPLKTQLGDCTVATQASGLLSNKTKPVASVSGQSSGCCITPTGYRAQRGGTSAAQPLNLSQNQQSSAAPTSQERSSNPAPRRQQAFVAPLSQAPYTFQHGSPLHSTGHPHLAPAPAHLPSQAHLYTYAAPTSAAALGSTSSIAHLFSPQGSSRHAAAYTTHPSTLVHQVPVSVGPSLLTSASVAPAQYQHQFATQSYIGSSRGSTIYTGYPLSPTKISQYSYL
Chain of CHKB (Q9Y259 whole entry): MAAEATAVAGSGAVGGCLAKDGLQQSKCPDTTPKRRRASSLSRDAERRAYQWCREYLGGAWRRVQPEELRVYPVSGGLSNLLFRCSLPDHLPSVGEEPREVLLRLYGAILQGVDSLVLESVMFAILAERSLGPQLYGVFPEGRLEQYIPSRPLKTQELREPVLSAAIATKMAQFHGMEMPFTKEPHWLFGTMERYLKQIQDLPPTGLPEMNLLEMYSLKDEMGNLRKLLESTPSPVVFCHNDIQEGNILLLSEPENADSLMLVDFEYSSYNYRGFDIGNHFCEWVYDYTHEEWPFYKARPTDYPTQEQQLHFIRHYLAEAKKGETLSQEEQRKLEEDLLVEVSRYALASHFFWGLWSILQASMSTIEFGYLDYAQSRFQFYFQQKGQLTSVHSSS
T4 sequence (O15530 whole entry): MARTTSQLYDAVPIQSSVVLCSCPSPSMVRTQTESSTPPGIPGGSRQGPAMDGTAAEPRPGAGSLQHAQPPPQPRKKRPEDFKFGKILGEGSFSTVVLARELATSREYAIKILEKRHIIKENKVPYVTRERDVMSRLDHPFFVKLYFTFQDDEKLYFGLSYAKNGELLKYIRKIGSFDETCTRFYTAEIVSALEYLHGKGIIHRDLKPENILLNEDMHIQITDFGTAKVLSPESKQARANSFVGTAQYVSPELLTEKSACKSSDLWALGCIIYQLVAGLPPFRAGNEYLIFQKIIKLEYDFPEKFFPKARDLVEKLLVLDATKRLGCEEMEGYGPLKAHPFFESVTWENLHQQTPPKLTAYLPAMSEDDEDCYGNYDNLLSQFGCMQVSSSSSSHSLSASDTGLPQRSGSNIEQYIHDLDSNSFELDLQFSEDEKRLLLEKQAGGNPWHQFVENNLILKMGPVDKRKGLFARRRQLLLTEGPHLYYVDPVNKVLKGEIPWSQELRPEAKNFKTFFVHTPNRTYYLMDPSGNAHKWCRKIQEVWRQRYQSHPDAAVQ

With `CC[C@@H](N)CNc1ccnc(-c2cc(-c3cnn(C)c3)ccc2O)n1` [CRT0066101], the inhibition at 1 µM against DAPK1(h) was -8%; against DGKG, -3%; against HIPK1(h) it was 23%; on CHKB, 3%; on PIK3CB, -9%; against AMPKα1(h), 17%. Further, the inhibition at 1 µM is -1% on PIK3CG / p85 (h); -14% at IGF-1R(h); 0% at Ret(h); -17% against PDK1(h); 96% against PKD2(h); -2% at FGFR4(h). Moreover, the inhibition at 1 µM was 61% at PDGFRα(D842V)(h); 5% against Abl(T315I)(h); 1% against CHKA; 2% on EphA2(h); -1% on PKCβII(h).

The record behind these values is article PMC5391474, “Investigation of the Role of Protein Kinase D in Human Rhinovirus Replication” (Journal of Virology, 2017).
